Data on 2 compounds can be found in US10695355B2, “Methods for pharmacologic treatment of stroke” (University of Connecticut, priority 2017, dated 2020).

Data set [1] has as its system Middle Cerebral Artery occlusion (MCAo) model, male C57B/6 mice. Briefly: Neurological deficit (ND) score after MCAo stroke. In kind it is in vivo. An excerpt: (§1) Middle cerebral artery occlusion and bilateral ovariectomy: We induced focal transient cerebral ischemia by a 60-minute right middle cerebral artery occlusion (MCAo) under isoflurane anesthesia followed by reperfusion for either 3, 15, or 30 days. […] The 15- and 30-day time points represent sub-acute and chronic recovery as discussed in the art. Briefly, we performed a midline ventral neck incision and unilateral right MCAo by advancing a 6.0 silicone rubber-coated monofilament (Doccol Corporation, CA) 10-11 mm from the internal carotid artery bifurcation via an external carotid artery stump. We monitored rectal temperatures with a temperature control system (Fine Science Tools, Canada), maintaining the temperature at approximately 37° C. during surgery with an automatic heating pad. We used laser doppler flowmetry (DRT 4/Moor Instruments Ltd, Devon, UK) to measure cerebral blood flow and to confirm occlusion (reduction to 15% of baseline cerebral blood flow) and reperfusion. All animals were fed with wet mash for one week after surgery to ensure adequate nutrition for chronic endpoints, as animals have rearing deficits after stroke. In sham mice, we performed identical surgeries except the suture was not advanced into the internal carotid artery. For the gonadal hormone-mediated outcome study, we ovariectomized (ovxed) female mice two weeks prior to stroke surgery.
Neurological deficit score: The neurological deficit (ND) score is a crude assessment of post-stroke behavioral recovery. We recorded ND scores, ranging from 0 to 4, at several time points after stroke. Our standard scoring system was as follows: 0, no deficit; 1, forelimb weakness and torso turning to the ipsilateral side when held by the tail; 2, circling to affected side; 3, unable to bear weight on affected side; and 4, no spontaneous locomotor activity or barrel rolling.
Male C57B/6 (2-3 month old; 22-28 g) mice were used in this experiment. The ischemia duration was 60 minutes, with reperfusion for 72 hours. […]

The nature of a further data set: Solubility in water/PBS. The data set is classed as physicochemical.
In data set [2] the test system is Middle Cerebral Artery occlusion (MCAo) model, male C57B/6 mice. Briefly: Infarct volume after middle cerebral artery occlusion (MCAo) stroke. In kind it is in vivo. The conditions noted are these: 60 min ischemia, 72 h reperfusion, vs vehicle.
Text: as §1
Cresyl violet staining for infarct volume and tissue atrophy analysis: We measured tissue infarct (day 3) or tissue atrophy (day 30) after stroke as described in the art. Briefly, we sacrificed the mice after stroke surgery with an overdose of Avertin (250 mg/kg intraperitoneally, i.p). After blood collection by cardiac puncture, we performed trans-cardiac perfusion on the mice using cold phosphate buffered saline (PBS) followed by 4% paraformaldehyde. Brains were then fixed overnight and placed in cryoprotectant (30% sucrose in PBS) for 72 hours before processing. We then sliced the brains into 30-μm free-floating sections using a freezing microtome; every eighth slice was mounted and stained with cresyl violet. […]

The test system is the same in data set [3]. Description: Open field test (exploratory activity, anxiety-like behavior) after MCAo stroke. In kind it is in vivo. The conditions noted are these: first dose 4 hour after stroke, reperfusion 30 days. The source says:
(§2) Sensory motor deficit test: We used the open field test (OFT) and rotarod test to measure spontaneous locomotor activity/anxiety-like behavior and motor balance coordination, respectively, at baseline and post-mcao days 2, 7, 14, 21, and 28. As the OFT is a non-stressful test, we performed the OFT prior to the rotarod test, on the same day with one hour difference between tests.
Open field test: The OFT is a common measure of exploratory behavior and general activity in rodents, which can be used both qualitatively and quantitatively. Briefly, we placed mice in a corner of a clear acrylic box (16″×16″) and allowed them to explore the box for ten minutes. We quantified locomotor activity as the total number of beam breaks by a computer-operated, open-field photobeam activity system (San Diego Instruments, San Diego, Calif.). We calculated the percentage of beam breaks in the center zone (16/3″×16/3″) compared to the total as a measure of anxiety-like behavior. Importantly, OFT tests can be administered at several time points to view trends without hindrance by habituation.
Male C57B/6 (2-3 month old; 22-28 g) mice were used in a Middle Cerebral Artery occlusion (MCAo) model. The ischemia duration was 60 mins and the reperfusion was 30 days. […] Vehicle was 1% DMSO in 0.5% methyl cellulose (n=5 Behaviors were measured weekly using methods described above. (n=7).

Data set [4] has the same test system. Briefly: Rotarod test (sensorimotor deficit) after MCAo stroke. The data set is classed as in vivo. The conditions noted are these: 0.5 mg/kg p.o./day for 3 days, first dose 4 hour after stroke; reperfusion 30 days, measured weekly; drug vs vehicle.
Text: as §2
Rotarod test: The rotarod test examines motor coordination in mice. We placed mice on a rotating cylindrical rod accelerating from two to ten rotations per minute, over a span of five minutes. Each subject performed two trials with a 20-minute break between the two trials. We recorded the latency to fall from the rotating rod for each trial (in seconds), and used the mean latency for comparison between groups.
Male C57B/6 (2-3 month old; 22-28 g) mice were used in a Middle Cerebral Artery occlusion (MCAo) model. The ischemia duration was 60 mins and the reperfusion was 30 days. The drug was 5-BDBD- (0.5 mg/kg p.o./day in 1% DMSO and 0.5% methyl cellulose suspension) administered for 3 days. The first dose was given at 4 hour after stroke. Vehicle was 1% DMSO in 0.5% methyl cellulose (n=5 Behaviors were measured weekly using methods described above. (n=7).
A general note: The rotarod test checks motor coordination on a turning rod.

Setting [5] is: 0.5 mg/kg p.o./day for 3 days, first dose 4 hour after stroke, cresyl violet.

For `O=C1CC(=O)N(c2cccc(-c3noc(=S)[nH]3)c2)c2ccc3ccccc3c2N1` [NP-1815-PX, 5-[3-(5-thioxo-4H-[1,2,4]oxadiazol-3-yl)phenyl]-1H-naphtho[1,2-b][1,4]diazepine-2,4(3H,5H)-dione], in data set [1] (0.5-5 mg/kg in 1xPBS via Alzet mini osmotic pump (SC) for 3 days, after 3 days of stroke, vs vehicle), the ND score entry is reported as “improve”. Besides, the solubility entry in “Solubility in water/PBS” is listed as “Water/PBS Soluble”. In data set [2] (0.5-5 mg/kg in 1xPBS via Alzet mini osmotic pump (SC) for 3 days, TTC), the stroke infarct size result is reported as “could reduce”.

In the case of `O=C1CN=C(c2cccc(Br)c2)c2oc3ccccc3c2N1` [5-BDBD, 5-(3-Bromophenyl)-1,3-dihydro-2H-Benzofuro[3,2-e]-1,4-diazepin-2-one], the “Neurological deficit score measured after 3 days of stroke” value in data set [1] (0.5 mg/kg p.o./day for 3 days, first dose 4 hour after stroke, 60 min ischemia, vs vehicle) was “reduces”. For the same compound, the “neurological deficit (ND) score” value in data set [1] (oral 0.5 mg/kg daily for 5 days beginning on the day of stroke, MCAo 60 minute followed by reperfusion) is on record as “improved significantly”. In addition, the “post stroke anxiety (% C/P = % time spent in center/time spent in periphery)” value in data set [3] (0.5 mg/kg p.o./day for 3 days (acute treatment)) is on record as “reduces post stroke anxiety up to a month”. In addition, the total exploratory activity entry in data set [3] (0.5 mg/kg p.o./day for 3 days, drug vs vehicle) was “similar”. In addition, the “rotarod test (test for sensorimotor deficit)” value in data set [4] is reported as “overall significant difference”. Moreover, in data set [2] (setting [5]), the cortical infarct volume entry is “reduces” and the hemispheric infarct volume result is “reduces”.
